Converted amounts (≈) assume the structure as drawn. Values belong to the molecule of their own block, whether it stands above or below them.
Tests used:
[1] = system: Humanized anti-folate receptor 1 (FOLR1) IgG1; experiment: Thiol per antibody (DTNB/Ellman's) after incubating immobilized antibody with damaged CHO cell supernatant; type: biochemical; conditions: 0.05 mM agent, 2.2 hours; antibody eluted from Protein A bead, neutralized to pH 7
Description: For all of the examples described below, cell damage was simulated by multiple freeze-thaw cycles of cells, by addition of RIPA buffer (50 mM Tris-HCl, pH 7.4, 1% NP-40, 0.5% sodium deoxycholate, 0.1% sodium dodecylsulfate), or by using microfluidizer. This damaged cell supernatant or lysate was then incubated with a buffered solution containing antibody with or without the anti-reduction agent being tested, following which the extent of the antibody-disulfide reduction was measured using Ellman's assay for thiol (P. W. Riddles, R. L. Blakeley, and B. Zerner, Methods Enzymol., 91, 49-60, 1983) or by non-reducing SDS protein LabChip analysis. The total thiol level present in the mixture of damaged cell supernatant/lysate was measured initially. […]
The concentration of thiol in the suspension of damaged CHO cells was measured as 4 mM using DTNB ((5,5′-dithiobis(2-nitrobenzoic acid); Ellman's reagent). Humanized anti-folate receptor 1 (FOLR1) IgG1 (1 mg) was immobilized on 0.05 ml of Protein A bead (RepliGen) and then treated with pre-mixed 0.5 ml PBS and 0.1 ml damaged CHO cell supernatant. The concentration of thiol in this mixture was 0.67 mM. […]

[2] = physchem; conditions: thermodynamic from solid
[3] = 50 mM potassium phosphate buffer, pH adjusted to 7.1
[4] = system: humanized FOLR1 IgG1; experiment: Antibody fragmentation in HCCF with 20% (v/v) microfluidized CHO cells (non-reducing SDS-Protein Lab Chip); type: biochemical; conditions: 1 mM of each additive, 6 h; no additive control 78%
[5] = system: recombinant humanized IgG1 antibody; experiment: Antibody fragmentation in HCCF kept under nitrogen, air or oxygen with or without CDME (non-reducing SDS-Protein Lab Chip); type: biochemical
Description: A CHO cell culture producing recombinant humanized IgG1 antibody was subjected to centrifugation and the resulting harvest cell culture fluid (HCCF) was frozen at −80° C. […] At various time points, samples were quenched with N-ethylmaleimide (NEM), purified using immobilized Protein A, and analyzed for fragments using non-reducing SDS-Protein Lab Chip electrophoresis. […] In contrast, the sample overlayed with air became less fragmented with time, reaching a plateau of about 25% fragmentation at 20 hours.

SMILES: CN(C)c1ccc2nc3ccc(N(C)C)cc3[s+]c2c1 [methylene blue, Methylene blue]
thiol per antibody of eluted, neutralized antibody [1]: 0.002 thiol per antibody

SMILES: O=O [oxygen]
protection against fragmentation ([5]; sparging with oxygen at various percentages of dissolved O2): showed protection against fragmentation

SMILES: O=C1c2ccccc2C(=O)c2cc(S(=O)(=O)O)ccc21 [AQS, anthraquinone-2-sulfonic acid]
fragmentation compared to no additive control [4]: much lower fragmentations

The next lines start with results.

solubility ([2]; pH 7, aqueous buffer): > 100 mM
solubility ([2]; water): ≥ 1000 mM
SMILES: CCOC(=O)[C@@H](N)CSSC[C@H](N)C(=O)OCC [CDEE, L-cystine diethyl ester]

concentration dissolved in buffer [3]: less than 5 mM
SMILES: Cl.Cl.N[C@@H](CSSC[C@H](N)C(=O)O)C(=O)O [L-cystine dihydrochloride, reference compound]

solubility ([2]; water): ~0.5 mM (≈ 0.12 mg/mL)
SMILES: N[C@@H](CSSC[C@H](N)C(=O)O)C(=O)O [L-cystine, reference compound]

concentration dissolved in buffer [3]: ≥ 5000 µM
SMILES: COC(=O)[C@@H](N)CSSC[C@H](N)C(=O)OC [CDME, L-cystine dimethyl ester]
fragmentation compared to no additive control [4]: much lower fragmentations
time up to which the antibody was protected from reduction ([5]; 1 mM CDME with nitrogen): up to 20 hours
time up to which the antibody was protected from reduction ([5]; 2 mM CDME with nitrogen): ≤ 45 h
fragmentation with air overlay plus CDME versus air alone ([5]; ~1 mM CDME with air overlay, up to 72 hours): lowered the fragmentation further
